Data: article PMC10724293, “New ruthenium-xanthoxylin complex eliminates colorectal cancer stem cells by targeting the heat shock protein 90 chaperone” (Cell Death & Disease, 2023)
pIC50: −log10 of the molar value.

Columns and labels:
MRC-5 = assay: Alamar blue cytotoxicity assay, noncancerous cells; type: cell-based, human; conditions: Homo sapiens, MRC5, MRC-5 noncancerous cells, 72 h, read-out: IC50 and 95%CI
Procedure: (§1) The Alamar blue assay was used to determine cell viability as previously described. Cells were seeded into 96-well plates at a density of 7 × 10^3 cells per well for adherent cells or 3 × 10^4 cells per well for suspended cells. The drug was added to each well after 24 h of incubation for adherent cells or immediately for suspended cells and incubated for an additional 72 h. […] Each well received 100 µM resazurin (Sigma-Aldrich Co. St. Louis, MO, United States) four (for cell lines) or 24 (for primary culture) h before the end of the incubation. A SpectraMax 190 Microplate Reader (Molecular Devices, Sunnyvale, CA, USA) was used to measure absorbance at 570 and 600 nm.

PBMC = assay: Alamar blue cytotoxicity assay, noncancerous cells; type: cell-based, human; conditions: Homo sapiens, 72 h, read-out: IC50 and 95%CI
Procedure: as §1

BJ = assay: Alamar blue cytotoxicity assay, noncancerous cells; type: cell-based, human; conditions: Homo sapiens, 72 h, read-out: IC50 and 95%CI
Procedure: as §1

HCT116 cells [1] = assay: CRC tumor growth xenograft model; type: in vivo, C. B-17 SCID mice; conditions: RXC 2 mg/kg, DOX 0.8 mg/kg, i.p. once a day for 2 weeks
Procedure: HCT116 cells (10^7 cells/500 μl) were inoculated subcutaneously into the left front armpit of mice, as previously reported. The animals were then treated intraperitoneally (200 μl/animal) once a day for 2 weeks. […] The animals were euthanized with an anesthetic overdose (thiopental, 100 mg/kg) 1 day after treatment ended, and tumors were excised, weighed, and processed for histological analysis. The inhibition ratio (percent) was calculated as follows: inhibition ratio (percent) = [(A − B)/A] × 100, where A is the average tumor weight of the negative control and B is the treated group.

[2] = RXC 2 mg/kg, DOX 0.8 mg/kg
Text: To evaluate toxicological features, all animals were weighed at the beginning and end of the experiment. Throughout the experiment, the animals were monitored for abnormalities. An Advia 60 hematology system was used to perform hematological analyses (Bayer, Leverkusen, Germany). The livers, kidneys, lungs, and hearts were removed, weighed, and examined for color change, gross lesion formation, and/or hemorrhaging before being fixed in 4% formaldehyde, dehydrated in a graded alcohol series, washed in xylene, and embedded in paraffin wax. The tissue was cut into 5 μm thick slices, stained with hematoxylin-eosin and/or periodic acid-Schiff (liver and kidney), and examined histologically under optical microscopy.

[3] = system: CR04 (malignant papillary mesothelioma); assay: Alamar blue viability of primary cancer cells; type: cell-based, human; conditions: primary papilliferous malignant mesothelioma; 25 μg/ml (RXC 31.3 μM, DOX 46 μM); 96 h
Procedure: as §1
(§2) CR03 (metastatic cholangiocarcinoma) CR04 (malignant papillary mesothelioma) […]
(§3) Figure S1. […] Cells were exposed to 25 […]
(§4) measured after 96 h using the Alamar blue assay. The data are presented as the […]
(§5) mean ± S.E.M. of four replicates. * P < 0.05 compared to CTL by one-way ANOVA […]
(§6) followed by Dunnett's multiple comparisons test. […]

[4] = system: CR03 (metastatic cholangiocarcinoma); assay: Alamar blue viability of primary cancer cells; type: cell-based, human; conditions: 25 μg/ml (RXC 31.3 μM, DOX 46 μM), 96 h
Procedure: as §1, §2, §3, §4, §5, §6

[5] = system: CR01 (colorectal carcinoma); assay: Alamar blue viability of primary cancer cells; type: cell-based, human; conditions: primary CRC (first listed); 25 μg/ml (RXC 31.3 μM, DOX 46 μM); 96 h
Procedure: as §1, §2, §3, §4, §5, §6

JUKART = assay: Alamar blue cytotoxicity assay; type: cell-based, human; conditions: Homo sapiens, 72 h, read-out: IC50 and 95%CI
Procedure: as §1

SCC4 = assay: Alamar blue cytotoxicity assay; type: cell-based, human; conditions: Homo sapiens, SCC-4, 72 h, read-out: IC50 and 95%CI
Procedure: as §1

SCC-9 = assay: Alamar blue cytotoxicity assay; type: cell-based, human; conditions: Homo sapiens, 72 h, read-out: IC50 and 95%CI
Procedure: as §1

HCT116 = assay: Alamar blue cytotoxicity assay; type: cell-based, human; conditions: Homo sapiens, HCT-116, 72 h, read-out: IC50 and 95%CI
Procedure: as §1

H1299 = assay: Alamar blue cytotoxicity assay; type: cell-based, human; conditions: Homo sapiens, NCI-H1299, 72 h, read-out: IC50 and 95%CI
Procedure: as §1

THP-1 = assay: Alamar blue cytotoxicity assay; type: cell-based, human; conditions: Homo sapiens, 72 h, read-out: IC50 and 95%CI
Procedure: as §1

PANC-1 = assay: Alamar blue cytotoxicity assay; type: cell-based, human; conditions: Homo sapiens, 72 h, read-out: IC50 and 95%CI
Procedure: as §1

SCC-25 = assay: Alamar blue cytotoxicity assay; type: cell-based, human; conditions: Homo sapiens, 72 h, read-out: IC50 and 95%CI
Procedure: as §1

A549 = assay: Alamar blue cytotoxicity assay; type: cell-based, human; conditions: Homo sapiens, 72 h, read-out: IC50 and 95%CI
Procedure: as §1

MDA-MB-231 = assay: Alamar blue cytotoxicity assay; type: cell-based, human; conditions: Homo sapiens, 72 h, read-out: IC50 and 95%CI
Procedure: as §1

KG-1a = assay: Alamar blue cytotoxicity assay; type: cell-based, human; conditions: Homo sapiens, 72 h, read-out: IC50 and 95%CI
Procedure: as §1

CAL 27 = assay: Alamar blue cytotoxicity assay; type: cell-based, human; conditions: Homo sapiens, 72 h, read-out: IC50 and 95%CI
Procedure: as §1

HL-60 = assay: Alamar blue cytotoxicity assay; type: cell-based, human; conditions: Homo sapiens, 72 h, read-out: IC50 and 95%CI
Procedure: as §1

HepG2 = assay: Alamar blue cytotoxicity assay; type: cell-based, human; conditions: Homo sapiens, 72 h, read-out: IC50 and 95%CI
Procedure: as §1

NB4 = assay: Alamar blue cytotoxicity assay; type: cell-based, human; conditions: Homo sapiens, NB-4, 72 h, read-out: IC50 and 95%CI
Procedure: as §1

U-87 MG = assay: Alamar blue cytotoxicity assay; type: cell-based, human; conditions: Homo sapiens, 72 h, read-out: IC50 and 95%CI
Procedure: as §1

HSC-3 = assay: Alamar blue cytotoxicity assay; type: cell-based, human; conditions: Homo sapiens, 72 h, read-out: IC50 and 95%CI
Procedure: as §1

A-375 = assay: Alamar blue cytotoxicity assay; type: cell-based, human; conditions: Homo sapiens, 72 h, read-out: IC50 and 95%CI
Procedure: as §1

K-562 = assay: Alamar blue cytotoxicity assay; type: cell-based, human; conditions: Homo sapiens, K562, 72 h, read-out: IC50 and 95%CI
Procedure: as §1

DU 145 = assay: Alamar blue cytotoxicity assay; type: cell-based, human; conditions: Homo sapiens, 72 h, read-out: IC50 and 95%CI
Procedure: as §1

HCT116 cells [6] = assay: Cell cycle distribution and internucleosomal DNA fragmentation by flow cytometry; type: cell-based, human; conditions: 1 µM, positive control
Procedure: For quantification of internucleosomal DNA fragmentation and cell cycle distribution, the cells were stained with PI using a solution containing 0.1% Triton X-100, 2 µg/ml PI, 0.1% sodium citrate, and 100 µg/ml RNAse (all from Sigma-Aldrich) and incubated in the dark for 15 min at room temperature. Finally, cell fluorescence was measured using flow cytometry.
For all flow cytometry analyses, cell fluorescence was measured with a BD LSRFortessa cytometer and analyzed by BD FACSDiva Software (BD Biosciences) and FlowJo Software 10 (FlowJo LLC; Ashland, OR, USA). At least 10,000 events were evaluated per sample for intracellular staining, and at least 30,000 events were acquired per sample for cell surface protein staining. FSC-A versus FCS-H and SCC-A versus SCC-H were used to remove the doublets. The analysis excluded cellular debris.

B16-F10 = assay: Alamar blue cytotoxicity assay; type: cell-based, mouse; conditions: Mus musculus, 72 h, read-out: IC50 and 95%CI
Procedure: as §1

4T1 = assay: Alamar blue cytotoxicity assay; type: cell-based, mouse; conditions: Mus musculus, 72 h, read-out: IC50 and 95%CI
Procedure: as §1

HCT116 cells [7] = assay: Functional cell death assay with inhibitors/activator; type: cell-based, human; conditions: then 10 µM RXC for 48 h; for effect of autophagy inhibitor on RXC-induced cell death: pretreated with 50 µM CQ or 5 mM 3-MA, annexin V-FITC/PI
Text: (§7) For apoptosis detection or functional assays, cell viability was quantified using annexin V-FITC/PI (FITC Annexin V Apoptosis Detection Kit I, BD Biosciences, San Jose, CA, USA) or YO-PRO-1/PI (Sigma-Aldrich Co.). The following inhibitors were used: chloroquine (autophagy inhibitor, Ipca Laboratories, Mumbai, MH, India); 3-methyladenine (autophagy inhibitor, Sigma-Aldrich Co.); and lithium chloride (Wnt activator, Sigma-Aldrich Co.).

WT SV40 MEF = assay: Alamar blue survival curves; type: cell-based; conditions: Mus musculus, 72 h
Procedure: as §1

BAD KO SV40 MEF = assay: Alamar blue survival curves and cell death; type: cell-based, mouse; conditions: Mus musculus; BAD KO SV40 MEF; Alamar blue, 72 h
Procedure: as §1, §7

COc1cccc2c1C(=O)c1c(O)c3c(c(O)c1C2=O)C[C@@](O)(C(=O)CO)C[C@@H]3O[C@H]1C[C@H](N)[C@H](O)[C@H](C)O1 [DOX, Doxorubicin, reference compound]
pIC50 (MRC-5): 5.79 | pIC50 (PBMC): 5.89 | pIC50 (BJ): 6.14 | tumor mass inhibition (HCT116 cells [1]): 46.7% | hematological analysis ([2]; i.p. once a day for 2 weeks): Decreases in erythrocytes, hemoglobin, hematocrit, MCV and leukocytes | animals died during the treatment ([2]; i.p. once a day for 2 weeks, n = 15 per group): four | body weight ([2]; i.p. once a day for 2 weeks, p < 0.05): decrease in body weight | liver histology ([2]; mainly in treated animals): focal areas of hepatocyte coagulation necrosis | kidney histology ([2]; more evident than in control): focal areas of coagulation necrosis of the renal cortex tubules | reduced cell viability [3]: 64.3% | reduced cell viability [4]: 65.6% | reduced cell viability [5]: 71.0% | pIC50 (JUKART): 7.52 | pIC50 (SCC4): 7.15 | pIC50 (SCC-9): 5.92 | pIC50 (HCT116): 5.48 | pIC50 (H1299): 6.11 | pIC50 (THP-1): 6.92 | pIC50 (PANC-1): 5.97 | pIC50 (SCC-25): 5.80 | pIC50 (A549): 5.63 | pIC50 (MDA-MB-231): 6.26 | pIC50 (KG-1a): 6.40 | pIC50 (CAL 27): 6.74 | pIC50 (HL-60): 7.05 | pIC50 (HepG2): 7.05 | pIC50 (NB4): 6.96 | pIC50 (U-87 MG): 6.36 | pIC50 (HSC-3): 5.84 | pIC50 (A-375): 6.80 | pIC50 (K-562): 5.82 | pIC50 (DU 145): 6.66 | cell cycle effect (HCT116 cells [6]): G2/M arrest | pIC50 (B16-F10): 6.28 | pIC50 (4T1): 5.77

[Cl-].[Li+] [lithium chloride]
effect of Wnt activator on RXC-induced cell death (HCT116 cells [7]; pretreated with 25 mM LiCl, YO-PRO-1/PI): ineffective in preventing RXC-induced cell death

O=c1[nH]cc(F)c(=O)[nH]1 [5-FU, 5-fluorouracil, reference compound]
pIC50 (WT SV40 MEF): 5.00 | pIC50 (BAD KO SV40 MEF): 4.59

Cn1cnc(N)c2ncnc1-2 [3-MA, 3-methyladenine]
effect of autophagy inhibitor on RXC-induced cell death (HCT116 cells [7]): enhanced RXC-induced cell death

CCN(CC)CCCC(C)Nc1ccnc2cc(Cl)ccc12 (stereo not shown) [CQ, chloroquine]
effect of autophagy inhibitor on RXC-induced cell death (HCT116 cells [7]): enhanced RXC-induced cell death
